Legend:
[1] = target: T1, ATP-binding cassette sub-family C member 2 (Mus musculus, UniProt Q8VI47); assay: TP_TRANSPORTER: Northern blot in vivo, liver of CF I mouse; format: functional, organism-based
[2] = target: T1, ATP-binding cassette sub-family C member 2; assay: TP_TRANSPORTER: Western in vivo, liver of CF I mouse; format: functional, organism-based

T1 sequence (Q8VI47 whole entry): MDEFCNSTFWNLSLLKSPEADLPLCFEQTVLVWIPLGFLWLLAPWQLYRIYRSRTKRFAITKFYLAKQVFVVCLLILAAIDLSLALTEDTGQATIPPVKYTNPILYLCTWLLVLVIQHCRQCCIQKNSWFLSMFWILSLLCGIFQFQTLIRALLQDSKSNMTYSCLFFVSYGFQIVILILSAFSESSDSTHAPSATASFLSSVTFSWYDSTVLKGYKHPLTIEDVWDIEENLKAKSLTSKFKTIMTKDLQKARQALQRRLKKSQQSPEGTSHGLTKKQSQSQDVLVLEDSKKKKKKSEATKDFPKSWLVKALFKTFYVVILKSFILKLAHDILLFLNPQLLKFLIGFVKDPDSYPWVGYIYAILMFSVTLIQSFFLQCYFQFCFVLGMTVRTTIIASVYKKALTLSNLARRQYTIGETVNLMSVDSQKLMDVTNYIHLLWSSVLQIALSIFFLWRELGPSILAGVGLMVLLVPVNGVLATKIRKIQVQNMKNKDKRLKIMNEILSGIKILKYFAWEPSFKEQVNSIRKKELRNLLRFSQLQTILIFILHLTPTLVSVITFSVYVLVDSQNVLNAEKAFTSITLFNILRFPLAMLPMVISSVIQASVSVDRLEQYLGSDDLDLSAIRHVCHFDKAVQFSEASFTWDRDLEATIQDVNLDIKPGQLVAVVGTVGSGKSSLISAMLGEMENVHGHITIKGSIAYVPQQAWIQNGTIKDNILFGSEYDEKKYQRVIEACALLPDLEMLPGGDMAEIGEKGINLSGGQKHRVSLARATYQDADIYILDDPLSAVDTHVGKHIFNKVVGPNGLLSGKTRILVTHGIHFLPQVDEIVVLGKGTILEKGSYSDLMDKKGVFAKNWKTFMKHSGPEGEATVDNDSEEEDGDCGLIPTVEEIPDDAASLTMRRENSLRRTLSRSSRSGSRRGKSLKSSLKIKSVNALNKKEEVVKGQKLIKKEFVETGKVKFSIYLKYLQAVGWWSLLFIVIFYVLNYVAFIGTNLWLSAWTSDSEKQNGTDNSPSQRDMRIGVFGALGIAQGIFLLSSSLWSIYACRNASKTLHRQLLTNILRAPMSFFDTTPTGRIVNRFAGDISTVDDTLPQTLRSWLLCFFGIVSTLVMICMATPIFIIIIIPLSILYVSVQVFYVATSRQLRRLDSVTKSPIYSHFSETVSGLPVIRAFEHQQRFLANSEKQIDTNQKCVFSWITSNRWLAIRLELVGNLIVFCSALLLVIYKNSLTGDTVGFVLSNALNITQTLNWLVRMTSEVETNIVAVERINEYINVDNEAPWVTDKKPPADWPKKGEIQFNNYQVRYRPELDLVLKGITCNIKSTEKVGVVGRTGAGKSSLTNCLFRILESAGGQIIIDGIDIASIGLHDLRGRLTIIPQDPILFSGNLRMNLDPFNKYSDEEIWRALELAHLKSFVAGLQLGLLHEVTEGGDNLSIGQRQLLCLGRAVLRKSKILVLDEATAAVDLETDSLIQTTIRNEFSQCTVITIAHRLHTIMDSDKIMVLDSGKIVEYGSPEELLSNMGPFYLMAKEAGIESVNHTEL

SMILES: O=C(O)COc1cc(Cl)c(Cl)cc1Cl [2,4,5-TRICHLOROPHENOXYACETIC ACID]
- Activity [1]: inducer [+]
- Activity [2]: inducer [+]
